Data taken from patent US7026281B1, “Antagonistic analogs of GH-RH inhibiting IGF-I and -II” (The Administrators of the Tulane Educational Fund, priority 1998, dated 2006).
Square brackets hold non-standard residues; d marks the D form. Peptide text beside a SMILES is read from it. * marks the point of attachment. Acetyl(1-naphthyl) = O=C(Cc1cccc2ccccc12)*; Phe(4-Cl) = N[C@@H](Cc1ccc(Cl)cc1)C(=O)O; hArg = N=C(N)NCCCC[C@H](N)C(=O)O; Nle = CCCC[C@H](N)C(=O)O; Abu = CC[C@H](N)C(=O)O; PhAc = O=C(Cc1ccccc1)*

Key:
[1] = test system: hGH-RH(1–29)NH2 induced GH release; assay: Inhibition of GH release in superfused rat pituitary system; assay type: cell-based; conditions: antagonist 30 nM; for Inhibition of GH release (%) 30 min: 1 nM hGH-RH(1–29)NH2 30 min later; for Inhibition of GH release (%) 60 min: 1 nM hGH-RH(1–29)NH2 60 min later; for Inhibition of GH release (%) 90 min: 1 nM hGH-RH(1–29)NH2 90 min later; for Inhibition of GH release (%) 120 min: 1 nM hGH-RH(1–29)NH2 120 min later; for Inhibition of GH release (%) 0 min: 1 nM hGH-RH(1–29)NH2 at 0 min
Description: Superfused Rat Pituitary System.
The analogs were tested in vitro in a test described earlier (S. Vigh and A. V. Schally, Peptides 5:241–347, 1984) with modification (Z. Rekasi and A. V. Schally, P.N.A.S. 90:2146–2149, 1993).
Briefly, the cells are preincubated with peptides for 9 minutes (3 mL) at various concentrations. Immediately after the incubation, 1 nM hGH-RH(1–29)NH2 is administered for 3 minutes (1 mL) [0 minute response]. To check the duration of the antagonistic effect of the analogue, 1 nM hGH-RH(1–29)NH2 is applied 30, 60, 90, and 120 minutes later for 3 minutes [30, 60, 90, 120 min responses]. Net integral values of the GH responses are evaluated. GH responses are compared to and expressed as percent of the original GH response induced by 1 nM GH-RH(1–29)NH2. The effect of the new antagonists are compared to that of [Ac-Tyr^1,D-Arg^2]hGH-RH(1–29)NH2, the “Standard antagonist”.
Growth Hormone Radio-immunoassay.
Rat GH levels in aliquots of undiluted and diluted superfusion samples were measured by double-antibody radioimmunoassay using materials supplied by the National Hormone and Pituitary Program, Baltimore, Md. The results of RIA were analyzed with a computer program developed in our institute (V. Csernus and A. V. Schally, in Neuroendocrine Research Methods, Harwood Academic (Greenstein, B. D. ed., London, pp. 71–109, 1991), hereby incorporated by reference. Inter-assay variation was less than 15% and intra-assay variation was less than 10%.

[2] = target: T1, rat pituitary GH-RH receptors (Rattus norvegicus, UniProt Q02644); assay: GH-RH radioreceptor binding assay, rat anterior pituitary membrane homogenates; conditions: for Ki: competition with [His1,125I-Tyr10,Nle27]hGH-RH(1–32)NH2; for R.A. (relative affinity compared to Standard antagonist): ratio of Ki values
T1 construct: from tissue; host or cells: anterior pituitary of male Sprague-Dawley rats, crude membrane homogenates
T1 sequence (Q02644 23-464): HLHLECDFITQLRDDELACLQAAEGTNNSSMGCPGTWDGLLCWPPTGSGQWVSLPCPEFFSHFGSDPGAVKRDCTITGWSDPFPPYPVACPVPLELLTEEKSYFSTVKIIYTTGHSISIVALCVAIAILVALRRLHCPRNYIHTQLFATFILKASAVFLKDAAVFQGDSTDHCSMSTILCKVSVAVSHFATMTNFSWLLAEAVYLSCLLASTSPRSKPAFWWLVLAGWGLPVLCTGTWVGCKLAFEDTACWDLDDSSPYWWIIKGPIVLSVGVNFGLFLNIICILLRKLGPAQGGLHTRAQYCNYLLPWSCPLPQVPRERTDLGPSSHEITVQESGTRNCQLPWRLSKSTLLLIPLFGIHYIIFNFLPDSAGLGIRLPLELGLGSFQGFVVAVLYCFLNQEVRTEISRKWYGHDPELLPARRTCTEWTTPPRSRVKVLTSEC
Description: GH-RH Binding Assay. A sensitive radioreceptor binding assay was developed to determine the binding characteristics of the antagonists of GH-RH (G. Halmos, A. V. Schally et al., Receptor 3, 87–97, 1993), hereby incorporated by reference. The assay is based on binding of labelled [His^1,Nle^27]hGH-RH(1–32)NH2 to rat anterior pituitary membrane homogenates. Iodinated derivatives of [His^1,Nle^27]hGH-RH(1–32)NH2 are prepared by the chloramine-T method (F. C. Greenwood et al., Biochemistry 89:114–123, 1963), hereby incorporated by reference. Pituitaries from male Sprague-Dawley rats (250–300 g) are used to prepare crude membranes. For saturation binding analyses, membrane homogenates are incubated with at least 6 concentrations of [His^1,^125I-Tyr^10,Nle^27]hGH-RH(1–32) NH2, ranging from 0.005 to 0.35 nM in the presence or absence of excess unlabelled peptide (1 μM).
The pellet is counted for radioactivity in a γ-counter. The affinities of the antagonist peptides tested to rat pituitary GH-RH receptors are determined in competitive binding experiments. The final binding affinities are estimated by Ki (dissociation constant of the inhibitor-receptor complex) and are determined by the Ligand PC and McPherson computer programs of Munson and Rodbard (P. J. Munson and D. Rodbard, Anal. Biochem. 107. 220–239, 1980). Relative affinities compared to [Ac-Tyr^1,D-Arg^2]hGH-RH(1–29)NH2, the Standard antagonist, are calculated as the […].

[3] = test system: GH release stimulated by hGH-RH(1–29)NH2; assay: In vivo inhibition of serum GH response in rats; parameters: species or system rat
Description: GH-RH antagonistic effect of the analogs was tested on young male Sprague-Dawley rats (200–250 g). In each experiment, 5 groups of 7 animals each were used. The compounds (80 μg/kg) and GH-RH(1–29)NH2 (3 μg/kg) were dissolved in 5.5% mannitol and given intravenously to the jugular vein of the rats under Nembutal anesthesia. The time elapsed between the administrations of the antagonist and GH-RH varied between groups, according to the following schedule. The first group of animals received GH-RH injection 5 min after the administration of the antagonist; for the second, third and fourth group of animals, the time interval elapsed between the injection of the antagonist and that of GH-RH was 15, 30, and 60 min, respectively. The control group was first injected with the solvent alone instead of the antagonist, followed by a GH-RH injection 5 min later.
0.4 mL blood samples were taken for GH RIA before the administration of the antagonist (“blood0”), and 5 min after the injection of GH-RH (“blood1”). The GH response in each group was calculated as rGH=(GHblood1/GHblood0), mean±S.E.M. of the individual differences. Relative inhibition of GH response (%) in each group treated was calculated as […].

| Ki [2] [nM] | R.A. (relative affinity compared to Standard antagonist) [2] | SMILES | Inhibition of GH release (%) 30 min [1] [%] | Inhibition of GH release (%) 60 min [1] [%] | Inhibition of GH release (%) 90 min [1] [%] | Inhibition of GH release (%) 120 min [1] [%] | Inhibition of GH release (%) 0 min [1] [%] | Inhibition of the GH release stimulated by hGH-RH(1–29)NH2 (in words) ([3]; 80 μg/kg i.v., rats) | Relative inhibition % of GH response ([3]; antagonist 80 μg/kg i.v. 5 min before GH-RH) [%] | Relative inhibition % of GH response ([3]; antagonist 80 μg/kg i.v. 15 min before GH-RH) [%] | GH response mean ± S.E.M. ([3]; antagonist 80 μg/kg i.v. 15 min before GH-RH 3 μg/kg) | Relative inhibition % of GH response ([3]; antagonist 80 μg/kg i.v. 30 min before GH-RH) [%] | GH response mean ± S.E.M. ([3]; antagonist 80 μg/kg i.v. 30 min before GH-RH 3 μg/kg) | Relative inhibition % of GH response ([3]; antagonist 80 μg/kg i.v. 60 min before GH-RH) [%] | GH response mean ± S.E.M. ([3]; antagonist 80 μg/kg i.v. 60 min before GH-RH 3 μg/kg) | GH response mean ± S.E.M. ([3]; rGH=GHblood1/GHblood0, antagonist 80 μg/kg i.v. 5 min before GH-RH 3 μg/kg) |
| --- | --- | --- | --- | --- | --- | --- | --- | --- | --- | --- | --- | --- | --- | --- | --- | --- |
| 0.087 | 34 | CCCC[C@H](NC(=O)[C@@H](NC(=O)[C@H](CC(=O)O)NC(=O)[C@H](CCC(N)=O)NC(=O)[C@H](CC(C)C)NC(=O)[C@H](CC(C)C)NC(=O)[C@H](CCCCN)NC(=O)[C@H](CCCNC(=N)N)NC(=O)[C@H](C)NC(=O)[C@H](CO)NC(=O)[C@H](CC(C)C)NC(=O)[C@H](CCC(N)=O)NC(=O)[C@H](CC)NC(=O)[C@H](CC(C)C)NC(=O)[C@@H](NC(=O)[C@H](CCCCN)NC(=O)[C@H](CCCNC(=N)N)NC(=O)[C@H](Cc1ccc(O)cc1)NC(=O)[C@H](CCCCNC(=N)N)NC(=O)[C@H](CC(N)=O)NC(=O)[C@@H](NC(=O)[C@H](Cc1ccc(Cl)cc1)NC(=O)[C@@H](NC(=O)[C@H](C)NC(=O)[C@H](CC(=O)O)NC(=O)[C@@H](CCCNC(=N)N)NC(=O)[C@H](Cc1ccc(O)cc1)NC(=O)Cc1ccccc1)[C@@H](C)CC)[C@@H](C)O)C(C)C)[C@@H](C)CC)C(=O)N[C@H](CCCNC(=N)N)C(=O)N[C@@H](CCCCNC(=N)N)C(N)=O [Peptide 4, [PhAc^0, D-Arg^2, Phe(pCl)^6, Har^9, Abu^15, Nle^27, D-Arg^28, Har^29]hGH-RH(1–29)NH2] (PhAc-Y[dR]DAI[Phe(4-Cl)]TN[hArg]YRKVL[Abu]QLSARKLLQDI[Nle][dR][hArg]-NH2) | 86 | 80 | 79 | 68 | 83 | strong and long-lasting inhibition | 82 | 43 | 7.73 ± 1.12 | 7 | 12.00 ± 2.54 | 8 | 11.88 ± 0.90 | 3.08 ± 0.58 |
| 0.107 | 27 | CCCC[C@H](NC(=O)[C@@H](NC(=O)[C@H](CC(=O)O)NC(=O)[C@H](CCC(N)=O)NC(=O)[C@H](CC(C)C)NC(=O)[C@H](CC(C)C)NC(=O)[C@H](CCCCN)NC(=O)[C@H](CCCNC(=N)N)NC(=O)[C@H](C)NC(=O)[C@H](CO)NC(=O)[C@H](CC(C)C)NC(=O)[C@H](CCCNC(=N)N)NC(=O)[C@H](CC)NC(=O)[C@H](CC(C)C)NC(=O)[C@@H](NC(=O)[C@H](CCCCN)NC(=O)[C@H](CCCNC(=N)N)NC(=O)[C@H](Cc1ccc(O)cc1)NC(=O)[C@H](CO)NC(=O)[C@H](CC(N)=O)NC(=O)[C@@H](NC(=O)[C@H](Cc1ccc(Cl)cc1)NC(=O)[C@@H](NC(=O)[C@H](C)NC(=O)[C@H](CC(=O)O)NC(=O)[C@@H](CCCNC(=N)N)NC(=O)[C@H](Cc1ccc(O)cc1)NC(=O)Cc1ccccc1)[C@@H](C)CC)[C@@H](C)O)C(C)C)[C@@H](C)CC)C(=O)N[C@@H](CO)C(=O)N[C@H](CCCNC(=N)N)C(N)=O [Peptide 10, [PhAc^0, D-Arg^2, Phe(pCl)^6, Abu^15, Arg^16, Nle^27, D-Arg^29]hGH-RH(1–29)NH2] (PhAc-Y[dR]DAI[Phe(4-Cl)]TNSYRKVL[Abu]RLSARKLLQDI[Nle]S[dR]-NH2) | 69 | 46 | 24 | 22 | 75 | – | – | – | – | – | – | – | – | – |
| 0.036 | 82 | CCCC[C@H](NC(=O)[C@@H](NC(=O)[C@H](CC(=O)O)NC(=O)[C@H](CCC(N)=O)NC(=O)[C@H](CC(C)C)NC(=O)[C@H](CC(C)C)NC(=O)[C@H](CCCCN)NC(=O)[C@H](CCCNC(=N)N)NC(=O)[C@H](C)NC(=O)[C@H](CO)NC(=O)[C@H](CC(C)C)NC(=O)[C@H](CCC(N)=O)NC(=O)[C@H](CC)NC(=O)[C@H](CC(C)C)NC(=O)[C@@H](NC(=O)[C@H](CCCCN)NC(=O)[C@H](CCCNC(=N)N)NC(=O)[C@H](Cc1ccc(O)cc1)NC(=O)[C@H](CCCNC(=N)N)NC(=O)[C@H](CC(N)=O)NC(=O)[C@@H](NC(=O)[C@H](Cc1ccc(Cl)cc1)NC(=O)[C@@H](NC(=O)[C@H](C)NC(=O)[C@H](CC(=O)O)NC(=O)[C@@H](CCCNC(=N)N)NC(=O)[C@H](Cc1ccc(O)cc1)NC(=O)Cc1cccc2ccccc12)[C@@H](C)CC)[C@@H](C)O)C(C)C)[C@@H](C)CC)C(=O)N[C@H](CCCNC(=N)N)C(=O)N[C@@H](CCCCNC(=N)N)C(N)=O [Peptide 5, [Nac^0, D-Arg^2, Phe(pCl)^6, Arg^9, Abu^15, Nle^27, D-Arg^28, Har^29]hGH-RH(1–29)NH2] ({Acetyl(1-naphthyl)}-Y[dR]DAI[Phe(4-Cl)]TNRYRKVL[Abu]QLSARKLLQDI[Nle][dR][hArg]-NH2) | 77 | 59 | 58 | 50 | 79 | – | – | – | – | – | – | – | – | – |
